Biological target: P. falciparum apicoplast DNA polymerase (Pf-apPOL) (Plasmodium falciparum, UniProt Q8ILY1)
Test: Fluorescence-based high-throughput DNA polymerase assay (molecular beacon), primary screen and dose-response;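 as to % inhibition Apol 40': compound concentration given in µM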
Type: biochemical
Conditions: for DNA Pol: 90 min, 10 µM
Method in brief: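 Single-point screening used 10 µM compound with 20 nM polymerase, 20 nM hairpin substrate and 6 µM dNTPs for 90 min at 25 °C. Confirmatory titrations (2.5–80 µM) followed fluorescence at three times, and IC50 was derived from a fit including a cooperativity term n.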

Chain of P. falciparum apicoplast DNA polymerase (Pf-apPOL) (Q8ILY1 entry or part of it): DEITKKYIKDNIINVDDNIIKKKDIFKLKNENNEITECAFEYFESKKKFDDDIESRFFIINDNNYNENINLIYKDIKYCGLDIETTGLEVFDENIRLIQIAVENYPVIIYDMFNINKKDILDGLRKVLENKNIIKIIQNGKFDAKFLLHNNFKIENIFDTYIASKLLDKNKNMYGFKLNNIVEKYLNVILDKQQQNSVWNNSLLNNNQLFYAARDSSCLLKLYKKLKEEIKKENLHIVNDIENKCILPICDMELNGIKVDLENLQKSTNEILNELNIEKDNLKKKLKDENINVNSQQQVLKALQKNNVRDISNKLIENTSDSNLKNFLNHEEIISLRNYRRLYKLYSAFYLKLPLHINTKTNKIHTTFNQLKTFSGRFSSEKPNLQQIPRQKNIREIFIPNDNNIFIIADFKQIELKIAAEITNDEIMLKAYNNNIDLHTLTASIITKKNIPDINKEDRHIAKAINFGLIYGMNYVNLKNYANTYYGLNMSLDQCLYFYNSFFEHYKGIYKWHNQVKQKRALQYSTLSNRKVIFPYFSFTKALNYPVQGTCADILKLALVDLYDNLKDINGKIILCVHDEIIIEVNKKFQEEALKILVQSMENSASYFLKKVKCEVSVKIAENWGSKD

`CC(=O)c1cc2c(N)c(/C(N)=N/C#N)sc2nc1C` [KU0015866] was tested, and the “DNA Pol” value ('DNA Pol' of the 186 hits list (primary screen value)) was 33, the “DNA Pol” value (DNA Pol (primary screen value)) was 33 and the “% inhibition Apo pol 10'” value (DRC-1, concentration 2.5) was 6.515%. The “% inhibition Apo pol 10'” value (DRC-1, concentration 5) was 12.7693%, the “% inhibition Apo pol 10'” value (DRC-1, concentration 10) was 31.7983% and the “% inhibition Apo pol 10'” value (DRC-1, concentration 20) was 44.0355%. For the same compound, the “% inhibition Apo pol 10'” value (DRC-1, concentration 40) was 64.9344%, the “% inhibition Apo pol 10'” value (DRC-1, concentration 80) was 81.2768% and the “% inhibition Apol 90'” value (DRC-1, concentration 2.5) was -0.6957%. The “% inhibition Apol 90'” value (DRC-1, concentration 5) was -1.631%, the “% inhibition Apol 90'” value (DRC-1, concentration 10) was 8.506% and the “% inhibition Apol 90'” value (DRC-1, concentration 20) was 14.7865%. The “% inhibition Apol 90'” value (DRC-1, concentration 40) was 35.058%, the “% inhibition Apol 90'” value (DRC-1, concentration 80) was 75.8739% and the “% inhibition apPOL 180'” value (DRC-1, concentration 2.5) was -1.629%. For the same compound, the “% inhibition apPOL 180'” value (DRC-1, concentration 5) was -5.477%, the “% inhibition apPOL 180'” value (DRC-1, concentration 10) was 0.782% and the “% inhibition apPOL 180'” value (DRC-1, concentration 20) was 3.3611%. The “% inhibition apPOL 180'” value (DRC-1, concentration 40) was 18.0593%, the “% inhibition apPOL 180'” value (DRC-1, concentration 80) was 70.7811% and the “% inhibition Apo pol 5'” value (DRC-2, concentration 2.5) was 7%. For the same compound, the “% inhibition Apo pol 5'” value (DRC-2, concentration 5) was 12%, the “% inhibition Apo pol 5'” value (DRC-2, concentration 10) was 28% and the “% inhibition Apo pol 5'” value (DRC-2, concentration 20) was 37%. For the same compound, the “% inhibition Apo pol 5'” value (DRC-2, concentration 40) was 40%, the “% inhibition Apo pol 5'” value (DRC-2, concentration 80) was 37% and the “% inhibition Apol 40'” value (DRC-2, concentration 2.5) was 6%. For the same compound, the “% inhibition Apol 40'” value (DRC-2, concentration 5) was 4.46%, the “% inhibition Apol 40'” value (DRC-2, concentration 10) was 19% and the “% inhibition Apol 40'” value (DRC-2, concentration 20) was 33%. The “% inhibition Apol 40'” value (DRC-2, concentration 40) was 48%, the “% inhibition Apol 40'” value (DRC-2, concentration 80) was 55% and the “% inhibition ApPOL 90'” value (DRC-2, concentration 2.5) was 4.51%. For the same compound, the “% inhibition ApPOL 90'” value (DRC-2, concentration 5) was 1.44%, the “% inhibition ApPOL 90'” value (DRC-2, concentration 10) was 14% and the “% inhibition ApPOL 90'” value (DRC-2, concentration 20) was 25%. The “% inhibition ApPOL 90'” value (DRC-2, concentration 40) was 45%, the “% inhibition ApPOL 90'” value (DRC-2, concentration 80) was 56% and the “% inhibition apPOL 180'” value (DRC-2, concentration 2.5) was -4.65%. For the same compound, the “% inhibition apPOL 180'” value (DRC-2, concentration 5) was -9%, the “% inhibition apPOL 180'” value (DRC-2, concentration 10) was -0.253% and the “% inhibition apPOL 180'” value (DRC-2, concentration 20) was 10%. For the same compound, the “% inhibition apPOL 180'” value (DRC-2, concentration 40) was 34% and the “% inhibition apPOL 180'” value (DRC-2, concentration 80) was 54%.

For `O=C(O)CCS(=O)(=O)c1ccc(-c2ccc(S(=O)(=O)CCC(=O)O)cc2)cc1` [Molecule 32, OC(=O)CCS(=O)(=O)c1ccc(cc1)c1ccc(cc1)S(=O)(=O)CCC(=O)O], the “DNA Pol” value ("DNA Pol" of the 186 hits list (screen value)) was 40, the “% inhibition Apo pol 10'” value (DRC-1, concentration 2.5) was 22.5031% and the “% inhibition Apo pol 10'” value (DRC-1, concentration 5) was 45.6696%. For the same compound, the “% inhibition Apo pol 10'” value (DRC-1, concentration 10) was 64.9587%, the “% inhibition Apo pol 10'” value (DRC-1, concentration 20) was 75.2971% and the “% inhibition Apo pol 10'” value (DRC-1, concentration 40) was 82.8671%. The “% inhibition Apo pol 10'” value (DRC-1, concentration 80) was 87.3536%, the “% inhibition Apol 90'” value (DRC-1, concentration 2.5) was 7.663% and the “% inhibition Apol 90'” value (DRC-1, concentration 5) was 20.8234%. The “% inhibition Apol 90'” value (DRC-1, concentration 10) was 43.1445%, the “% inhibition Apol 90'” value (DRC-1, concentration 20) was 59.5248% and the “% inhibition Apol 90'” value (DRC-1, concentration 40) was 71.1176%. For the same compound, the “% inhibition Apol 90'” value (DRC-1, concentration 80) was 79.0648%, the “% inhibition apPOL 180'” value (DRC-1, concentration 2.5) was -2.177% and the “% inhibition apPOL 180'” value (DRC-1, concentration 5) was 7.502%. For the same compound, the “% inhibition apPOL 180'” value (DRC-1, concentration 10) was 30.5046%, the “% inhibition apPOL 180'” value (DRC-1, concentration 20) was 50.8957% and the “% inhibition apPOL 180'” value (DRC-1, concentration 40) was 64.8259%. The “% inhibition apPOL 180'” value (DRC-1, concentration 80) was 73.8924%, the “% inhibition Apo pol 5'” value (DRC-2, concentration 2.5) was 15% and the “% inhibition Apo pol 5'” value (DRC-2, concentration 5) was 24%. For the same compound, the “% inhibition Apo pol 5'” value (DRC-2, concentration 10) was 39%, the “% inhibition Apo pol 5'” value (DRC-2, concentration 20) was 43% and the “% inhibition Apo pol 5'” value (DRC-2, concentration 40) was 49%. The “% inhibition Apo pol 5'” value (DRC-2, concentration 80) was 51%, the “% inhibition Apol 40'” value (DRC-2, concentration 2.5) was 10% and the “% inhibition Apol 40'” value (DRC-2, concentration 5) was 15%. The “% inhibition Apol 40'” value (DRC-2, concentration 10) was 31%, the “% inhibition Apol 40'” value (DRC-2, concentration 20) was 40% and the “% inhibition Apol 40'” value (DRC-2, concentration 40) was 53%. For the same compound, the “% inhibition Apol 40'” value (DRC-2, concentration 80) was 63%, the “% inhibition ApPOL 90'” value (DRC-2, concentration 2.5) was 5.57% and the “% inhibition ApPOL 90'” value (DRC-2, concentration 5) was 8%. The “% inhibition ApPOL 90'” value (DRC-2, concentration 10) was 26%, the “% inhibition ApPOL 90'” value (DRC-2, concentration 20) was 37% and the “% inhibition ApPOL 90'” value (DRC-2, concentration 40) was 52%. For the same compound, the “% inhibition ApPOL 90'” value (DRC-2, concentration 80) was 65%, the “% inhibition apPOL 180'” value (DRC-2, concentration 2.5) was -4.51% and the “% inhibition apPOL 180'” value (DRC-2, concentration 5) was -2.16%. The “% inhibition apPOL 180'” value (DRC-2, concentration 10) was 17%, the “% inhibition apPOL 180'” value (DRC-2, concentration 20) was 32% and the “% inhibition apPOL 180'” value (DRC-2, concentration 40) was 49%. For the same compound, the “% inhibition apPOL 180'” value (DRC-2, concentration 80) was 64% and the “DNA Pol” value (primary screen value, DNA Pol) was 40.

— PMC9090415, “Discovery of small molecule inhibitors of Plasmodium falciparum apicoplast DNA polymerase” (Journal of Enzyme Inhibition and Medicinal Chemistry, 2022)
